Values quoted from earlier work in PubChem BioAssay AID1259409 (Chemical Carcinogenesis Research Information System (CCRIS), 2018).

Tested on: rodent chemically induced tumor inhibition, incidence and multiplicity
Assay: CCRIS tumor inhibitor studies

CC(C)(C)c1cc(C(C)(C)C)c(O)cc1O
tumour outcome (control, treated, inhibition, significance) (Carcinogen: BENZO[A]PYRENE, 50-32-8, Dose [Inhibitor]: 0.03 MMOL/G OF DIET DAILY STARTING 7 D BEFORE AND CONTINUING THROUGH 3 D AFTER CARCINOGEN TREATMENT FOLLOWED BY OBSERVAT, Route [Inhibitor]: ORAL, Species: MOUSE, Strain/Sex: ICR/FEMALE, Target Tissue: Type of Lesion: FORESTOMACH: NEOPLASM, Dose [Carcinogen]: 1 MG IN 0.2 ML CORN OIL 2/WK FOR 4 WK, Promoter: NONE USED): 94%, 100%, -6%, not significant

CC(=O)Nc1ccc(O)cc1
tumour outcome (control, treated, inhibition, significance) (Carcinogen: 4-(METHYLNITROSAMINO)-1-(3-PYRIDYL)-1-BUTANONE, 64091-91-4, Dose [Inhibitor]: 0, 1520 MMOL/KG BW/D IN DIET FOR DURATION OF STUDY BEGINNING 2 WK PRIOR TO CARCINOGEN TREATMENT (STUDY DURATION: 25 WK), Route [Inhibitor]: ORAL, Species: MOUSE, Strain/Sex: STRAIN-A/FEMALE, Target Tissue: Type of Lesion: LUNG:TUMOR, Dose [Carcinogen]: 2.2 MMOL/KG BW (TOTAL DOSE) ADMINISTERED IN DRINKING WATER FOR 7 WK, Promoter: NONE USED): 29/29 (100%), 25/25 (100%), 0%, not significant
outcome (Carcinogen: N-ETHYL-N-HYDROXYETHYLNITROSAMINE, 13147-25-6, Dose [Inhibitor]: 1.3% IN DIET BEGINNING 1 WK AFTER LAST CARCINOGEN TREATMENT AND CONTINUING THROUGH DURATION OF STUDY (STUDY DURATION: 32, Route [Inhibitor]: ORAL, Species: RAT, Strain/Sex: F344/MALE, Target Tissue: Type of Lesion: KIDNEY: ADENOCARCINOMA, Dose [Carcinogen]: 0.1% IN DRINKING WATER FOR 2 WK AT BEGINNING OF STUDY, Promoter: NONE USED): 0/23 (0%), 1/23 (4%), not significant
tumour outcome (control, treated, inhibition, significance) (Carcinogen: N-ETHYL-N-HYDROXYETHYLNITROSAMINE, 13147-25-6, Dose [Inhibitor]: 1.3% IN DIET BEGINNING 1 WK AFTER LAST CARCINOGEN TREATMENT AND CONTINUING THROUGH DURATION OF STUDY (STUDY DURATION: 32, Route [Inhibitor]: ORAL, Species: RAT, Strain/Sex: F344/MALE, Target Tissue: Type of Lesion: KIDNEY: ADENOMA, Dose [Carcinogen]: 0.1% IN DRINKING WATER FOR 2 WK AT BEGINNING OF STUDY, Promoter: NONE USED): 5/23 (22%), 15/27 (56%), -154%, p<0.01
tumour outcome (control, treated, inhibition, significance) (Carcinogen: N-ETHYL-N-HYDROXYETHYLNITROSAMINE, 13147-25-6, Dose [Inhibitor]: 1.3% IN DIET BEGINNING 1 WK AFTER LAST CARCINOGEN TREATMENT AND CONTINUING THROUGH DURATION OF STUDY (STUDY DURATION: 32, Route [Inhibitor]: ORAL, Species: RAT, Strain/Sex: F344/MALE, Target Tissue: Type of Lesion: LIVER: HEPATOCELLULAR CARCINOMA, Dose [Carcinogen]: 0.1% IN DRINKING WATER FOR 2 WK AT BEGINNING OF STUDY, Promoter: NONE USED): 11/23 (48%), 3/27 (11%), 77%, p<0.05

CCCCOC(=O)c1ccccc1C(=O)OCc1ccccc1
tumour outcome (control, treated, inhibition, significance) (Carcinogen: 7,12-DIMETHYLBENZ[A]ANTHRACENE, 57-97-6, Dose [Inhibitor]: 0, 250 MG/KG IN CORN OIL 1/D FOR 7 D PRIOR TO CARCINOGEN DOSE (STUDY DURATION: 16 WK), Route [Inhibitor]: GAVAGE, Species: RAT, Strain/Sex: ?/FEMALE, Target Tissue: Type of Lesion: MAMMARY GLAND: TUMOR, Dose [Carcinogen]: 31 MG/KG IN CORN OIL ONCE, Promoter: NONE USED): 82%, 52%, 37%, p<0.05
tumour outcome (control, treated, inhibition, significance) (Carcinogen: 7,12-DIMETHYLBENZ[A]ANTHRACENE, 57-97-6, Dose [Inhibitor]: 0, 500 MG/KG IN CORN OIL 1/D FOR 7 D PRIOR TO CARCINOGEN DOSE (STUDY DURATION: 16 WK), Route [Inhibitor]: GAVAGE, Species: RAT, Strain/Sex: ?/FEMALE, Target Tissue: Type of Lesion: MAMMARY GLAND: TUMOR, Dose [Carcinogen]: 31 MG/KG IN CORN OIL ONCE, Promoter: NONE USED): 82%, 52%, 37%, p<0.05

O=C(O)c1cc(O)c(O)c(O)c1
tumour outcome (control, treated, inhibition, significance) (Carcinogen: 7,12-DIMETHYLBENZ[A]ANTHRACENE, 57-97-6, Dose [Inhibitor]: 0, 12 MG 2/WK FOR 30 WK APPLIED 20 MIN PRIOR TO EACH PROMOTER DOSE (STUDY DURATION: 32 WK), Route [Inhibitor]: DERMAL, Species: MOUSE, Strain/Sex: SENCAR/FEMALE, Target Tissue: Type of Lesion: SKIN: PAPILLOMA, Dose [Carcinogen]: 25 NMOL ONCE, Promoter: M-CHLOROPEROXYBENZOIC ACID, 937-14-4): 39%, 3%, 92%, not calculated
tumour outcome (control, treated, inhibition, significance) (Carcinogen: 7,12-DIMETHYLBENZ[A]ANTHRACENE, 57-97-6, Dose [Inhibitor]: 0, 20 UMOL IN 0.4 ML ACETONE 20 MIN PRIOR TO EACH PROMOTER DOSE (STUDY DURATION: 47 WK), Route [Inhibitor]: DERMAL, Species: MOUSE, Strain/Sex: CF-1/FEMALE, Target Tissue: Type of Lesion: SKIN: CARCINOMA, Dose [Carcinogen]: 100 NMOL IN 0.2 ML ACETONE ONCE): 67%, 28%, 58%, p<0.005
tumour outcome (control, treated, inhibition, significance) (Carcinogen: 7,12-DIMETHYLBENZ[A]ANTHRACENE, 57-97-6, Dose [Inhibitor]: 0, 20 UMOL IN 0.4 ML ACETONE 20 MIN PRIOR TO EACH PROMOTER DOSE (STUDY DURATION: 47 WK), Route [Inhibitor]: DERMAL, Species: MOUSE, Strain/Sex: CF-1/FEMALE, Target Tissue: Type of Lesion: SKIN: PAPILLOMA, Dose [Carcinogen]: 100 NMOL IN 0.2 ML ACETONE ONCE): 94%, 80%, 15%, not calculated
tumour outcome (control, treated, inhibition, significance) (Carcinogen: BENZO[A]PYRENE, 50-32-8, Dose [Inhibitor]: 1% AQUEOUS SOLUTION 3/WK FOR A TOTAL OF 80 APPLICATIONS BEGINNING POST CARCINOGEN DOSE (STUDY DURATION: 567-580 D), Route [Inhibitor]: DERMAL, Species: MOUSE, Strain/Sex: CD-1/MALE, FEMALE, Target Tissue: Type of Lesion: SKIN: TUMOR, Dose [Carcinogen]: 0.53-0.6 MG ONCE, Promoter: NONE USED): 15/50 (30%), 15/50 (30%), 0%, not significant

O=C(CBr)c1ccc(Br)cc1
tumour outcome (control, treated, inhibition, significance) (Carcinogen: 7,12-DIMETHYLBENZ[A]ANTHRACENE, 57-97-6, Dose [Inhibitor]: 10 UMOL APPLIED 30-40 MIN BEFORE EACH TPA TREATMENT AND CONCURRENTLY WITH TPA (STUDY DURATION: 18 WK), Route [Inhibitor]: DERMAL, Species: MOUSE, Strain/Sex: CD-1/FEMALE, Target Tissue: Type of Lesion: SKIN: PAPILLOMA, Dose [Carcinogen]: 200 NMOL ONCE, Promoter: 12-O-TETRADECANOYLPHORBOL-13-ACETATE, 16561-29-8): 96%, 57%, 41%, not calculated
tumour outcome (control, treated, inhibition, significance) (Carcinogen: N-NITROSODIETHYLAMINE, 55-18-5, 2-ACETYLAMINOFLUORENE, 53-93-6, CARBON TETRACHLORIDE, 56-23-5, Carcinogen: N-NITROSODIETHYLAMINE, 55-18-5, 2-ACETYLAMINOFLUORENE, 53-93-6, CARBON TETRACHLORIDE, 56-23-5, Dose [Inhibitor]: 0, 0.75% IN DIET FOR 29 WK ADMINISTERED TO RATS BEARING PERSISTENT NODULES FOLLOWING CARCINOGEN TREATMENT (STUDY DURATIO, Route [Inhibitor]: ORAL, Species: RAT, Strain/Sex: F344/MALE, Target Tissue: Type of Lesion: LIVER: HEPATOCELLULAR CARCINOMA, Dose [Carcinogen]: 200 MG/KG BW DEN ONCE, 0.002% 2-AAF IN DIET FOR 2 WK, 1 MG/KG BW CCL4 MIDWAY IN 2-AAF TREATMENT, Dose [Carcinogen]: 200 MG/KG BW DEN ONCE, 0.002% 2-AAF IN DIET FOR 2 WK, 1 MG/KG BW CCL4 MIDWAY IN 2-AAF TREATMENT, Promoter: NONE USED): 7/8 (88%), 11/11 (100%), -12%, not significant
tumour outcome (control, treated, inhibition, significance) (Carcinogen: N-NITROSODIETHYLAMINE, 55-18-5, 2-ACETYLAMINOFLUORENE, 53-93-6, CARBON TETRACHLORIDE, 56-23-5, Carcinogen: N-NITROSODIETHYLAMINE, 55-18-5, 2-ACETYLAMINOFLUORENE, 53-93-6, CARBON TETRACHLORIDE, 56-23-5, Dose [Inhibitor]: 0, 0.75% IN DIET FOR 29 WK ADMINISTERED TO RATS BEARING PERSISTENT NODULES FOLLOWING CARCINOGEN TREATMENT (STUDY DURATIO, Route [Inhibitor]: ORAL, Species: RAT, Strain/Sex: F344/MALE, Target Tissue: Type of Lesion: LIVER: HEPATOCELLULAR CARCINOMA, Dose [Carcinogen]: 200 MG/KG BW DEN ONCE, 0.002% 2-AAF IN DIET FOR 2 WK, 1 ML/KG BW CCL4 MIDWAY IN 2-AAF TREATMENT, Dose [Carcinogen]: 200 MG/KG BW DEN ONCE, 0.002% 2-AAF IN DIET FOR 2 WK, 1 ML/KG BW CCL4 MIDWAY IN 2-AAF TREATMENT, Promoter: PHENOBARBITAL, 50-06-6): 12/12 (100%), 13/14 (93%), 7%, not significant
